According to patent US8222416B2, “Azaindole glucokinase activators” (Hoffmann-La Roche Inc., priority 2009, dated 2012):

Target: T1, Recombinant human liver GK1 (GST-GK) (Homo sapiens, UniProt P35557)
T1 construct: made in house; host or cells: E. coli
T1 sequence (P35557 1-466 isoform P35557-2): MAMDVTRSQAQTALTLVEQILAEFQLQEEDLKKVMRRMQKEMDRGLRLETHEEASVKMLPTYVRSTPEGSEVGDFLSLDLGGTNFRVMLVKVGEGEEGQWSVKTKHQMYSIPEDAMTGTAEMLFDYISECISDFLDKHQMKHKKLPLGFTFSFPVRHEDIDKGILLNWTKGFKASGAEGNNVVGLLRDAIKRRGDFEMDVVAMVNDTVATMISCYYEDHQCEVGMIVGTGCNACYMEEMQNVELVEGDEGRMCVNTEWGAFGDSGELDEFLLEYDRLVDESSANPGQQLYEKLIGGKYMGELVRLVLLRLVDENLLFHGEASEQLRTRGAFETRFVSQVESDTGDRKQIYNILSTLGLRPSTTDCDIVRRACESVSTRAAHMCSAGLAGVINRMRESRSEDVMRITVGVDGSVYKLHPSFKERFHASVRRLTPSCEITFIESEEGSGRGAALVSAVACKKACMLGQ
Assay: In vitro glucokinase activity assay (G6PDH-coupled, NADH, OD340)
Format: biochemical
Settings: at 30 μM
Procedure: Glucokinase In Vitro Assay Protocol: Glucokinase (GK) was assayed by coupling the production of glucose-6-phosphate to the generation of NADH with glucose-6-phosphate dehydrogenase (G6PDH, 0.75-1 kunits/mg; Boehringer Mannheim, Indianapolis, Ind.) from Leuconostoc mesenteroides as the coupling enzyme (Scheme 2).
Recombinant human liver GK1 was expressed in E. coli as a glutathione S-transferase fusion protein (GST-GK) [Liang et al, 1995] and was purified by chromatography over a glutathione-Sepharose 4B affinity column using the procedure provided by the manufacturer (Amersham Pharmacia Biotech, Piscataway, N.J.).
The assay was conducted at 30° C. in a flat bottom 96-well tissue culture plate from Costar (Cambridge, Mass.) with a final incubation volume of 120 μL. The incubation reaction contained the following: 25 mM Hepes buffer (pH 7.1), 25 mM KCl, 5 mM D-glucose, 1 mM ATP, 1.8 mM NAD, 2 mM MgCl2, 1 μM sorbitol-6-phosphate, 1 mM dithiothreitol, test drug or 10% dimethylsulfoxide, ˜7 units/ml G6PDH, and GK (see below). All organic reagents were >98% pure and were from Boehringer Mannheim with the exceptions of D-glucose and Hepes which were from Sigma Chemical Co, St Louis, Mo. Test compounds were dissolved in dimethylsulfoxide and were added to the incubation reaction minus GST-GK in a volume of 12 μL to yield a final dimethylsulfoxide concentration of 10%. This mix was pre-incubated in the temperature controlled chamber of a SPECTRAmax 250 microplate spectrophotometer (Molecular Devices Corporation, Sunnyvale, Calif.) for 10 minutes to allow temperature equilibrium and then the reaction was started by the addition of 20 μL GST-GK.
After addition of enzyme, the increase in optical density (OD) at 340 nm was monitored spectrophotometrically to determine the rate of change (OD340 per min). The GK activity (OD340/min) in control wells (10% dimethylsulfoxide minus GK activators) was compared with the activity in wells containing test GK activators, and the concentration of activator that produced a 50% increase in the activity of GK, i.e., the SC1.5, was calculated.

fold activation of GK [fold at 30]	SMILES
1.4	CCS(=O)(=O)c1cnc2[nH]c(C(CC3CCCC3)c3ccc(S(C)(=O)=O)cc3)cc2c1 (stereo not drawn) [Example 125, 2-[2-Cyclopentyl-1-(4-methanesulfonyl-phenyl)-ethyl]-5-ethanesulfonyl-1H-pyrrolo[2,3-b]pyridine]

Same assay, conditions: concentration of activator that produced a 50% increase in the activity of GK; 5 mM D-glucose, 30° C.

SC1.5 [µM]	SMILES
0.8	CS(=O)(=O)c1ccc(C(CC2CCCC2)c2cc3cc(OCCO)cnc3[nH]2)cc1 (stereo not drawn) [Example 30, 2-{2-[2-Cyclopentyl-1-(4-methanesulfonyl-phenyl)-ethyl]-1H-pyrrolo[2,3-b]pyridin-5-yloxy}-ethanol]
7.4	CS(=O)(=O)c1ccc(C(O)(CC2CCC2)c2cc3cccnc3[nH]2)cc1 (stereo not drawn) [Example 115, 2-Cyclobutyl-1-(4-methanesulfonyl-phenyl)-1-(1H-pyrrolo[2,3-]pyridin-2-yl)-ethanol]
2.6	Cc1cnc2[nH]c([C@H](CC3CCCC3)c3ccc(C(C)(C)O)c(F)c3)cc2c1 (single isomer, unassigned) [Example 129]
2.3	CCOC(=O)C(C)(C)Oc1cnc2[nH]c(C(CC3CCCC3)c3ccc(S(C)(=O)=O)cc3)cc2c1 (stereo not drawn) [Example 26, 2-{2-[2-Cyclopentyl-1-(4-methanesulfonyl-phenyl)-ethyl]-1H-pyrrolo[2,3-b]pyridin-5-yloxy}-2-methyl-propionic acid ethyl ester]
2.4	CCOc1ccc(C(CC2CCCC2)c2cc3cccnc3[nH]2)cn1 (stereo not drawn) [Example 108, 2-[2-Cyclopentyl-1-(6-ethoxy-pyridin-3-yl)-ethyl]-1H-pyrrolo[2,3-b]pyridine]
22.0	COc1cnc2[nH]c(C(CC3CCCO3)c3ccc(S(C)(=O)=O)cc3)cc2c1 (single isomer, unassigned) [Example 25, 2-[1-(4-Methanesulfonyl-phenyl)-2-(tetrahydro-furan-2-yl)-ethyl]-5-methoxy-1H-pyrrolo[2,3-b]pyridine]
1.0	CNC(=O)c1cnc2[nH]c([C@H](CC3CCCC3)c3ccc(S(C)(=O)=O)cc3)cc2c1 [Example 6, 2-[2-Cyclopentyl-1(R)-(4-methanesulfonyl-phenyl)-ethyl]-1H-pyrrolo[2,3-b]pyridin-5-carboxylic acid methylamide]
14.9	CS(=O)(=O)c1ccc(C(O)(CC2CCC2)c2cc3cccnc3[nH]2)cc1C(F)(F)F (stereo not drawn) [Example 76, 2-Cyclobutyl-1-(4-methanesulfonyl-3-trifluoromethyl-phenyl)-1-(1H-pyrrolo[2,3-b]pyridin-2-yl)-ethanol]
0.693	COc1cnc2[nH]c(C(CC3CCCC3)c3ccc(C(F)(F)F)cc3)cc2c1 (stereo not drawn) [Example 20, 2-[2-Cyclopentyl-1-(4-trifluoromethyl-phenyl)-ethyl]-5-methoxy-1H-pyrrolo[2,3b]pyridine]
9.0	CN(C)CCc1cnc2[nH]c(C(CC3CCCC3)c3ccc(S(C)(=O)=O)cc3)cc2c1 (stereo not drawn) [Example 40, (2-{2-[2-Cyclopentyl-1-(4-methanesulfonyl-phenyl)-ethyl]-1H-pyrrolo[2,3-b]pyridin-5-yl}-ethyl)-dimethyl-amine]
23.6	CC(C)C(C)(O)c1ccc(C(CC2CCCC2)c2cc3cccnc3[nH]2)cc1 (stereo not drawn) [Example 85, 2-{4-[2-Cyclopentyl-1-(1H-pyrrolo[2,3-b]pyridin-2-yl)-ethyl]-phenyl}-3-methyl-butan-2-ol]
21.9	COc1cnc2[nH]c(C(CC3CCCO3)c3ccc(S(C)(=O)=O)cc3)cc2c1 (single isomer, unassigned) [Example 23, 2-[1-(4-Methanesulfonyl-phenyl)-2-(tetrahydro-furan-2-yl)-ethyl]-5-methoxy-1H-pyrrolo[2,3-b]pyridine]
3.0	COc1cnc2[nH]c(C(CC3CCOCC3)c3ccc(C(F)(F)F)cc3)cc2c1 (stereo not drawn) [Example 33, 5-Methoxy-2-[2-(tetrahydro-pyran-4-yl)-1-(4-trifluoromethyl-phenyl)-ethyl]-1H-pyrrolo[2,3-b]pyridine]
10.9	CC(O)c1cnc2[nH]c(C(CC3CCCC3)c3ccc(S(C)(=O)=O)cc3)cc2c1 (single isomer, unassigned) [Example 9, 1-{2-[2-Cyclopentyl-1-(4-methanesulfonyl-phenyl)-ethyl]-1H-pyrrolo[2,3-b]pyridin-5-yl}-ethanol]
1.8	COc1ccc2cc(C(CC3CCCC3)c3ccc(S(C)(=O)=O)cc3)[nH]c2n1 (stereo not drawn) [Example 113, 2-[2-Cyclopentyl-1-(4-methanesulfonyl-phenyl)-ethyl]-6-methoxy-1H-pyrrolo[2,3-b]pyridine]
0.18	COc1cnc2[nH]c(C(CC3CCCC3)c3ccc(S(C)(=O)=O)cc3)cc2c1 (stereo not drawn) [Example 12, 2-[2-Cyclopentyl-1-(4-methanesulfonyl-phenyl)-ethyl]-5-methoxy-1H-pyrrolo[2,3-b]pyridine]

SC1.5 [µM]	SMILES
0.857	CS(=O)(=O)c1ccc(C(O)(CC2CCCC2)c2cc3cccnc3[nH]2)cc1 (single isomer, unassigned) [Example 86, 2-Cyclopentyl-1-(4-methanesulfonyl-phenyl)-1-(1H-pyrrolo[2,3-b]pyridin-2-yl)-ethanol]
3.5	Cc1ccc(C(CC2CCCC2)c2cc3cccnc3[nH]2)cn1 (stereo not drawn) [Example 63]
0.854	CC(C)CC(c1ccc(S(=O)(=O)CCO)cc1)c1cc2cc(F)cnc2[nH]1 (stereo not drawn) [Example 101]
7.8	Cc1cccc(C(CC(C)C)c2cc3cccnc3[nH]2)c1 (stereo not drawn) [Example 130, 2-(3-Methyl-1-m-tolyl-butyl)-1H-pyrrolo[2,3-b]pyridine]
0.144	CS(=O)(=O)c1ccc([C@@H](CC2CCCC2)c2cc3cc(C#N)cnc3[nH]2)cc1 (single isomer, unassigned) [Example 53]
12.9	COc1cccc(C(CC(C)C)c2cc3cccnc3[nH]2)c1 (stereo not drawn) [Example 134, 2-(1-(3-Methoxy-phenyl)-3-methyl-butyl)-1H-pyrrolo[2,3-b]pyridine]
0.832	O=S(=O)(CCO)c1ccc(C(CC2CCCC2)c2cc3cccnc3[nH]2)cc1 (stereo not drawn) [Example 91]
9.6	CC(=O)c1cccc(C(CC(C)C)c2cc3cccnc3[nH]2)c1 (stereo not drawn) [Example 135, 1-{3-[3-Methyl-1-(1H-pyrrolo[2,3-b]pyridin-2-yl)-butyl]-phenyl}-ethanone]
0.028	CS(=O)(=O)c1ccc(/C(=C\C2CCC2)c2cc3cc(F)cnc3[nH]2)cc1 [Example 46, 2-[(E)-2-Cyclobutyl-1-(4-methanesulfonyl-phenyl)-vinyl]-5-fluoro-1H-pyrrolo[2,3-b]pyridine]
15.2	CC(C)CC(c1cccc(-n2cccn2)c1)c1cc2cccnc2[nH]1 (stereo not drawn) [Example 137, 2-(1-(3-(1H-Pyrazol-1-yl)phenyl)-3-methylbutyl)-1H-pyrrolo[2,3-b]pyridine]
0.37	CS(=O)(=O)c1ccc(C(CC2CCCC2)c2cc3cc(C#N)cnc3[nH]2)cc1 (stereo not drawn) [Example 52, 2-[2-Cyclopentyl-1-(4-methanesulfonyl-phenyl)-ethyl]-1H-pyrrolo[2,3-b]pyridin-5-carbonitrile]
0.603	N#Cc1ccc(C(CC2CCCC2)c2cc3cc(F)cnc3[nH]2)cc1 (stereo not drawn) [Example 50, 4-[2-Cyclopentyl-1-(5-fluoro-1H-pyrrolo[2,3-b]pyridin-2-yl)-ethyl]-benzonitrile]
0.427	CC(C)C[C@H](c1ccc(S(=O)(=O)CCO)cc1)c1cc2cc(F)cnc2[nH]1 (single isomer, unassigned) [Example 102]
20.6	CC(C)(C)CC(c1ccc(S(C)(=O)=O)cc1)c1cc2cccnc2[nH]1 (stereo not drawn) [Example 74, 2-[1-(4-Methanesulfonyl-phenyl)-3,3-dimethyl-butyl]-1H-pyrrolo[2,3-b]pyridine]
14.9	CS(=O)(=O)c1ccc(C(CC2CCCC2)c2cc3cc(CCCO)cnc3[nH]2)cc1 (stereo not drawn) [Example 45, 3-{2-[2-Cyclopentyl-1-(4-methanesulfonyl-phenyl)-ethyl]-1H-pyrrolo[2,3-b]pyridin-5-yl}-propan-1-ol]
1.9	COc1cnc2[nH]c(C(CC3CCOCC3)c3ccc(S(C)(=O)=O)cc3)cc2c1 (stereo not drawn) [Example 31]
